Measurements reported in patent publication US6426343B1, “Preparation and use of a specific GABA-Aα5 receptor ligand for treatment of Alzheimer's disease” (Merck Sharp & Dohme Ltd., priority 1995, dated 2002).

Assays:
α2β3γ2 = molecular target: T1, α2β3γ2 (Homo sapiens, UniProt P18507+P47869); experiment: Radioligand binding, membranes of stably transfected cells
T1 construct: expressed in transfected cells

α3β3γ2 = molecular target: T2, α3β3γ2 (Homo sapiens, UniProt P18507+P34903); experiment: as above
T2 construct: expressed in transfected cells

α6β3γ2 = molecular target: T3, α6β3γ2 (Homo sapiens, UniProt P18507+Q16445); experiment: as above
T3 construct: expressed in transfected cells

GABAA receptors = experiment: In vivo [3H]Ro 15-1788 binding in whole mouse brain
Description: (§1) The in vivo binding of [^3H]Ro 15-1788 to mouse brain was performed essentially as described by Goeders and Kuhar (1985). Male Swiss-Webster mice received a 0.9% NaCl solution containing 50 mCi/kg of [^3H]Ro 15-1788 (0.05 ml/10 g of body weight) via the tail vein. […] Each mouse brain was then rapidly removed, homogenised in 5.0 ml of 50 mM Tris HCl, 5.0 mM EDTA, pH 7.4 at 4° C. using an ultra-turrax homogeniser for 10 s at setting 5. In a separate series of experiments different brain regions, selected for their preferential expression of particular GABA subtypes were also examined. Binding of [^3H]Ro 15-1788 to cerebellum is almost exclusively α1-like (Quirk et al, 1994), whereas binding to spinal cord is indicative of binding to receptors containing α2 or α3-subtypes, α1, α4 and α5 are rare or absent in this region (Wisden et al, 1992). Brains were rapidly dissected into forebrain and cerebellum and the spinal cord was also removed. […] Volumes ([…]) of homogenate were filtered rapidly through GF/B filters, washed with 2×5.0 ml volumes of ice-cold buffer and the residual radioactivity was counted by liquid scintillation spectroscopy.

Forebrain (all α) = experiment: In vivo [3H]Ro 15-1788 binding, forebrain; set-up: species or system mouse; settings: 30 min, mean±SEM, relative to vehicle
Description: as §1, with “spectroscopy. […]” for “spectroscopy.”

Cerebellum (α1) = Cerebellum (α1) (Mus musculus, UniProt P22723+P62812); experiment: In vivo [3H]Ro 15-1788 binding, cerebellum
Description: (§2) The in vivo binding of [^3H]Ro 15-1788 to mouse brain was performed essentially as described by Goeders and Kuhar (1985). Male Swiss-Webster mice received a 0.9% NaCl solution containing 50 mCi/kg of [^3H]Ro 15-1788 (0.05 ml/10 g of body weight) via the tail vein. […] Each mouse brain was then rapidly removed, homogenised in 5.0 ml of 50 mM Tris HCl, 5.0 mM EDTA, pH 7.4 at 4° C. using an ultra-turrax homogeniser for 10 s at setting 5. In a separate series of experiments different brain regions, selected for their preferential expression of particular GABA subtypes were also examined. Binding of [^3H]Ro 15-1788 to cerebellum is almost exclusively α1-like (Quirk et al, 1994), whereas binding to spinal cord is indicative of binding to receptors containing α2 or α3-subtypes, α1, α4 and α5 are rare or absent in this region (Wisden et al, 1992). Brains were rapidly dissected into forebrain and cerebellum and the spinal cord was also removed. Each forebrain was homogenised in 4.0 ml of buffer (approximately 14 ml/g wet weight of tissue), each cerebellum was homogenised in 1.0 ml of buffer (approximately 14 ml/g wet weight of tissue) and each spinal cord in 1.0 ml of buffer (approximately […] wet weight of tissue). Volumes ([…]) of homogenate were filtered rapidly through GF/B filters, washed with 2×5.0 ml volumes of ice-cold buffer and the residual radioactivity was counted by liquid scintillation spectroscopy.
(§3) Mice were injected intraperitoneally with FG 8094, 10 mg/kg or 1 mg/kg, 30 minutes prior to sacrifice and [^3H]Ro 15-1788 (0.1 mCi/g). Brain regions were dissected, homogenised and filtered as described in methods.

[1] = system: benzodiazepine binding site of α1-containing GABA receptors; experiment: In vivo [3H]Ro 15-1788 binding, cerebellum; settings: male, Swiss-Webster, mouse, cerebellum, intraperitoneal, 1 mg/kg, probe [3H]Ro 15-1788
Description: as §2, §3

Spinal cord (α2/3) = experiment: In vivo [3H]Ro 15-1788 binding, spinal cord; settings: for percentage inhibition of in vivo [3H]Ro 15-1788 binding, spinal cord: 30 min, mean±SEM, relative to vehicle
Description: as §2, §3

[2] = system: benzodiazepine binding site of α2/3-containing GABA receptors; experiment: In vivo [3H]Ro 15-1788 binding, spinal cord; settings: male, Swiss-Webster, mouse, in vivo, 1 mg/kg
Description: as §2, §3

male Sprague Dawley rats = experiment: Pro-convulsant testing, acute treatment, PTZ infusion; assay type: in vivo, rat; settings: 0.5-4.0 mg/kg IP 30 min prior to PTZ infusion
Description: Sixty naive male Sprague Dawley rats (225-265 g) housed in groups of four with food and water freely available, served as subjects. The rats were assigned to one of six groups and given: Vehicle or 0.5, 1.0, 2.0, 4.0 mg/kg of […] or 10.0 mg/kg of the non-selective receptor inverse agonist, CGS 8216, a known pro-convulsant agent. Vehicle, FG 8094 or CGS 8216 was administered IP 30 min prior to an infusion of the convulsant, pentylenetetrazole (PTZ, 40 mg/ml). PTZ was infused into the tail vein of the rat at the rate of 1.0 ml/min. The latency to clonic and tonic seizure were recorded and the threshold to each was calculated using the equation: Threshold dose=infusion rate (ml/s)×PTZ (mg/ml)×(1000/rats weight)×latency(s).

rats [3] = experiment: Pro-convulsant testing, chronic treatment, PTZ infusion; assay type: in vivo, rat; settings: 0.1, 0.3, 1.0 mg/kg IP, 24 doses, final dose 48 h before testing
Description: The rats used in this study received chronic treatment with FG 8094 during a MWM experiment. The rats were dosed IP once per day (Monday to Friday) and received a total of 24 doses. Following each drug administration rats were tested in a MWM and received the final dose of drug 48 h prior to convulsant testing. The subjects were assigned to one of four treatment groups (n=8) and given either Vehicle, 0.1, 0.3, or 1.0 mg/kg of FG 8094.
On the day of proconvulsant testing, the rats were restrained and pentylenetetrazole (PTZ, 40.0 mg/ml) was infused as described above. The latency(s) to both clonic and tonic (full extension) convulsion was recorded. Latency data were transformed to yield the dose of PTZ needed to reach the threshold of both clonic and tonic seizures.

[4] = system: non-α5 subtype containing GABA-A receptors; experiment: In vivo [3H]Ro 15-1788 binding after pellet implantation; set-up: species or system rat; settings: SC pellet
rats [5] = experiment: Watermaze experiment with SC pellet of FG 8094
[6] = Blood levels after subcutaneous pellet implantation; settings: 1.5 mg in hydroxy propylmethylcellulose pellet, rats
[7] = ip, read-out: percentage inhibition of in vivo [3H]Ro 15-1788 binding, cerebellum

Chain of Cerebellum (α1) (P62812 28-455): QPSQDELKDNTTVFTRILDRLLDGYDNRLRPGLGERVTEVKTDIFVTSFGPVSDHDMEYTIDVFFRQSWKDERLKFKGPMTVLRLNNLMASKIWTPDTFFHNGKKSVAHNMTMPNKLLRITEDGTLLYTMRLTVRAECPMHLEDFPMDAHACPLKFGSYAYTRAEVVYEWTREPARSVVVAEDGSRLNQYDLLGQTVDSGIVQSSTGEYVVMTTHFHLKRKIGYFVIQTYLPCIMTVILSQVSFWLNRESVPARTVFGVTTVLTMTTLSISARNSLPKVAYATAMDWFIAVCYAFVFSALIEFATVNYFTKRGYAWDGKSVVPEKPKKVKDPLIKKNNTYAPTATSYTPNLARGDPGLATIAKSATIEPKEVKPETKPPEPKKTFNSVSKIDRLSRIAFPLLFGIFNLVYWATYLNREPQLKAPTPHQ
Chain of Cerebellum (α1) (P22723 39-474): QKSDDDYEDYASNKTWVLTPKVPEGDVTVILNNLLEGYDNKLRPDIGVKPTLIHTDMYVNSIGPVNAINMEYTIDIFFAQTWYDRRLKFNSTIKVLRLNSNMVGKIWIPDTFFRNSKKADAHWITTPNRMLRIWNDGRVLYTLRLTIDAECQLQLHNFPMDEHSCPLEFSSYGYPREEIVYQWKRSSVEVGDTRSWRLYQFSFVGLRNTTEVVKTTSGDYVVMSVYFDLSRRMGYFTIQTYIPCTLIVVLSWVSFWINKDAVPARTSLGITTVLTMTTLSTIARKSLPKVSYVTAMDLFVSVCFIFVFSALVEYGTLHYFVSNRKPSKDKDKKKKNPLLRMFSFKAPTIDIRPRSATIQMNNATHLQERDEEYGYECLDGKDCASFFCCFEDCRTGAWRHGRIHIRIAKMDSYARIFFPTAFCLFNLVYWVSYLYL
Chain of Cerebellum (α1) (P63137 25-474 partner limits assumed): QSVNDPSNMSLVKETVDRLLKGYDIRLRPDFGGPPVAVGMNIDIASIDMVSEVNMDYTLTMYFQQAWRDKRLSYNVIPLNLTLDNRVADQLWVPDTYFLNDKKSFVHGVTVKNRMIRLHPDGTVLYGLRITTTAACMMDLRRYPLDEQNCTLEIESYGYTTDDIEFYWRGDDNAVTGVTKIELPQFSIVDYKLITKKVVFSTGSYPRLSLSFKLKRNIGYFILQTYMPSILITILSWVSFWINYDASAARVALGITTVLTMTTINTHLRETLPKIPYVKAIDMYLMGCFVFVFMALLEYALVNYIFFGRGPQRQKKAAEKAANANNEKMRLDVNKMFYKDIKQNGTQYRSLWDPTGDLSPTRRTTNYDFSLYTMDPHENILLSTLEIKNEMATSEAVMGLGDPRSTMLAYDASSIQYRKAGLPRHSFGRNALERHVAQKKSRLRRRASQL
T1 sequence (P47869 29-451): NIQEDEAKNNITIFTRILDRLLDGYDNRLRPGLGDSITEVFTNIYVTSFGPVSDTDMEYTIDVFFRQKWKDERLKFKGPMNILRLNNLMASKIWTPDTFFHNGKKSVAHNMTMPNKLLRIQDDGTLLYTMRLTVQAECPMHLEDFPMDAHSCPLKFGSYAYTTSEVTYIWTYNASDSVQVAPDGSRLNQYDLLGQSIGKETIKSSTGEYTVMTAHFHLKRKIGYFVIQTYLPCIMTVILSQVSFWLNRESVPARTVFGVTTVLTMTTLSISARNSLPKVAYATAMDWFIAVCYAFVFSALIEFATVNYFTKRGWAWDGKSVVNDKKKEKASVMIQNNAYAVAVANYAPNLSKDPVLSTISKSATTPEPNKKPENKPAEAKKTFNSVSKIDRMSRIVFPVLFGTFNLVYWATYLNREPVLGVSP
T1 sequence (P28472 26-473 partner): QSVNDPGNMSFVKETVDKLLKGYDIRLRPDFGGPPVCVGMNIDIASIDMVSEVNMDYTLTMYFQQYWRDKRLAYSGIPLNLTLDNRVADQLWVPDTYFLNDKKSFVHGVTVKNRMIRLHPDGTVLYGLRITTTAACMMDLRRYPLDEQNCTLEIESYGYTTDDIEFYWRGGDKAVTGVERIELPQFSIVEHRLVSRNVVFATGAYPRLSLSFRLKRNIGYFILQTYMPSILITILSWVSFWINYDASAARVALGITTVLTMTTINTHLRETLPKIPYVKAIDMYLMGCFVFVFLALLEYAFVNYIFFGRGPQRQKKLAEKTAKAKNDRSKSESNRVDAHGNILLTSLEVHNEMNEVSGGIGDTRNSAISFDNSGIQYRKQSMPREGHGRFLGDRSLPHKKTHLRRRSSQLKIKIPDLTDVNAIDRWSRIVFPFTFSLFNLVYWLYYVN
T1 sequence (P18507 40-467 isoform P18507-1 limits assumed): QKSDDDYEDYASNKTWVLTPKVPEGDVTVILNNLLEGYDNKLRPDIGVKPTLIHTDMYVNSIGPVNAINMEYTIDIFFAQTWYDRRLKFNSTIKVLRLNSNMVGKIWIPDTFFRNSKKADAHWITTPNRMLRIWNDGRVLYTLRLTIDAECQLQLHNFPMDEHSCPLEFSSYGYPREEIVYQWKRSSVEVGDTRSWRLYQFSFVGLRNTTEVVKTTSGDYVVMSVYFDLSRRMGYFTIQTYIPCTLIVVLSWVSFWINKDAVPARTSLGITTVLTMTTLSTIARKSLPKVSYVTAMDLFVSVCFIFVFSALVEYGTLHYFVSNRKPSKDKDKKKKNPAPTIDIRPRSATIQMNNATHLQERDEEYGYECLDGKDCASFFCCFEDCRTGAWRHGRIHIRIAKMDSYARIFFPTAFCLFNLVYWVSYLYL
T3 sequence (Q16445 20-453): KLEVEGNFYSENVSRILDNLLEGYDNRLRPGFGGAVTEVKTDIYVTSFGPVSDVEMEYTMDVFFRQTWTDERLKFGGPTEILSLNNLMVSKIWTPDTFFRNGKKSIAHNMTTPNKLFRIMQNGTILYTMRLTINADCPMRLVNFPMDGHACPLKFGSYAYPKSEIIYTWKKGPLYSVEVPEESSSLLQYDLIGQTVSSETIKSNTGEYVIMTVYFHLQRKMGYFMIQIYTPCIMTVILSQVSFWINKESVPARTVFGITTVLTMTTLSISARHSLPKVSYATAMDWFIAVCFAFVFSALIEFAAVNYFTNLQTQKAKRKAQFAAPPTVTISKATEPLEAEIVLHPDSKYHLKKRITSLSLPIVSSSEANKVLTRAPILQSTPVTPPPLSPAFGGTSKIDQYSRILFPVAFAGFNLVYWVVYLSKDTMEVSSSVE
T3 sequence (P28472 26-473 partner): as the sequence (P28472 26-473 partner) above
T3 sequence (P18507 40-467 isoform P18507-1 limits assumed): as the sequence (P18507 40-467 isoform P18507-1 limits assumed) above
T2 sequence (P34903 29-492): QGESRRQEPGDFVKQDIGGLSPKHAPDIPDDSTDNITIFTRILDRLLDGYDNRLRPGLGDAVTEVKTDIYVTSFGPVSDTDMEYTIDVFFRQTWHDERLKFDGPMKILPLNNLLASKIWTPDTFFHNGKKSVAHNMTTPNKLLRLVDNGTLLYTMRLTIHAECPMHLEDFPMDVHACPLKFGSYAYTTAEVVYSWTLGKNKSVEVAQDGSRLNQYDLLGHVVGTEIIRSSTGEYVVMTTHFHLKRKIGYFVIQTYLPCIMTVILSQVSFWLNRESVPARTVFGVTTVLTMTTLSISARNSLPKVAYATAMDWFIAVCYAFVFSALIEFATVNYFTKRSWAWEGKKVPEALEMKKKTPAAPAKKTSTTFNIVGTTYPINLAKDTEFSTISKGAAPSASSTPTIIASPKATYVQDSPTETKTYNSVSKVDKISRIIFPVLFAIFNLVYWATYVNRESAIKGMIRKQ
T2 sequence (P28472 26-473 partner): as the sequence (P28472 26-473 partner) above
T2 sequence (P18507 40-467 isoform P18507-1 limits assumed): as the sequence (P18507 40-467 isoform P18507-1 limits assumed) above

In the case of `CCOC(=O)c1ncn2c1[C@@H]1CCCN1C(=O)c1cc(OC)ccc1-2` [FG 8094, 9H-imidazo[1,5-a]pyrrolo[2,1-C][1,4]benzodiazepine-1-carboxylic acid, 11, 12, 13, 13a-tetrahydro-7-methoxy-9-oxo-, ethyl ester, (S)-(9CI)], the Ki (α2β3γ2) is reported as 27.4 ± 2.5 nM, the Ki (α3β3γ2) is reported as 24.5 ± 2 nM and the Ki (α6β3γ2) is reported as 83.2 ± 4.5 nM. The “displacement of [3H]Ro 15-1788 binding, whole brain” value (GABAA receptors; 10.0 mg/kg intraperitoneally, p<0.05) was “significantly displaced”, the “displacement of specific [3H]Ro 15-1788 binding, whole brain” value (GABAA receptors; intraperitoneally at doses of up to 3.0 mg/kg) was “did not significantly displace” and the “percentage inhibition of in vivo [3H]Ro 15-1788 binding, forebrain” value (Forebrain (all α); 1 mg/kg ip) was 8.3 ± 3.2. The “percentage inhibition of in vivo [3H]Ro 15-1788 binding, forebrain” value (Forebrain (all α); 10 mg/kg ip) was 53.3 ± 4.2, the inhibition at 1 mg/kg (Cerebellum (α1); [7]) was 13.8 ± 4.9% and the inhibition at 10 mg/kg (Cerebellum (α1); [7]) was 55 ± 6.9%. For the same molecule, the receptor occupancy at 1 mg/kg (Cerebellum (α1); read-out: occupancy of α1 receptors) was < 15%, the concentration at 30 min [1] was 7.8 nM and the “occupancy of α2/3 receptors” value (Spinal cord (α2/3); 1.0 mg/kg) was “less than 35%”. For the same molecule, the “percentage inhibition of in vivo [3H]Ro 15-1788 binding, spinal cord” value (Spinal cord (α2/3); 1 mg/kg ip) was 33.8 ± 7.4, the “percentage inhibition of in vivo [3H]Ro 15-1788 binding, spinal cord” value (Spinal cord (α2/3); 10 mg/kg ip) was 74.2 ± 3.8 and the concentration at 30 min [2] was 13.2 nM. The pro-convulsant effects (male Sprague Dawley rats) was “devoid of pro-convulsant effects”, the “threshold dose of PTZ to clonic or tonic seizure” value (rats [3]) was “no significant effect of treatment” and the “occupancy of non-α5 subtype containing GABA-A receptors” value [4] was “did not significantly occupy”. The convulsions or sedation (rats [5]; SC pellet) was “did not cause convulsions or sedation”, the watermaze performance (rats [5]; pellet implanted SC 2 hrs before, training on one day) was “improved performance” and the blood levels [6] was “greater than 100 ng/ml”. The “duration of blood levels greater than 100 ng/ml” value [6] was “more than 6 hours”.
